Test results taken from PubChem BioAssay AID328 (DTP/NCI, 2004).
Inconclusive results and toxic doses are left out.

Test system: BDF1 mice, P388 leukemia ip, median survival T/C
Assay: NCI In Vivo Anticancer Drug Screen. Data for tumor model P388 Leukemia (intraperitoneal) in B6D2F1 (BDF1) mice
Details: endpoint: median survival time, higher = longer survival
How it was run: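 Compound-treated tumour-bearing mice were compared with vehicle-treated controls. Survival was recorded, and the value is the treated-group measurement divided by the control-group measurement (T/C).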

[1] = dose: 100.0 mg/kg/injection, schedule: Q04DX003 (ip), vehicle: saline with Tween-80
[2] = dose: 200.0 mg/kg/injection, schedule: Q04DX003 (ip), vehicle: saline with Tween-80
[3] = dose: 400.0 mg/kg/injection, schedule: Q04DX003 (ip), vehicle: saline with Tween-80

Compound: ClC1C2c3ccccc3C(C1Cl)[n+]1ccccc12 (configuration not stated)
- T/C (dose: 8.75 mg/kg/injection, schedule: Q01DX009 (ip), vehicle: Klucel (hydroxypropylcellulose) (HPC)): 100 % of control
- T/C (dose: 12.5 mg/kg/injection, schedule: Q04DX003 (ip), vehicle: Klucel (hydroxypropylcellulose) (HPC)): 100 % of control
- T/C (dose: 17.5 mg/kg/injection, schedule: Q01DX009 (ip), vehicle: Klucel (hydroxypropylcellulose) (HPC)): 100 % of control
- T/C (dose: 25.0 mg/kg/injection, schedule: Q04DX003 (ip), vehicle: Klucel (hydroxypropylcellulose) (HPC)): 95 % of control

Compound: CC(C)C(=O)c1ccc(-c2ccccc2)cc1
- T/C (dose: 12.5 mg/kg/injection, schedule: Q01DX009 (ip), vehicle: water): 105 % of control
- T/C (dose: 25.0 mg/kg/injection, schedule: Q01DX009 (ip), vehicle: water): 113 % of control
- T/C (dose: 25.0 mg/kg/injection, schedule: Q04DX003 (ip), vehicle: water): 97 % of control
- T/C (dose: 50.0 mg/kg/injection, schedule: Q01DX009 (ip), vehicle: water): 102 % of control
- T/C (dose: 50.0 mg/kg/injection, schedule: Q04DX003 (ip), vehicle: water): 101 % of control
- T/C (dose: 100.0 mg/kg/injection, schedule: Q01DX009 (ip), vehicle: water): 111 % of control
- T/C (dose: 100.0 mg/kg/injection, schedule: Q04DX003 (ip), vehicle: water): 97 % of control
- T/C (dose: 200.0 mg/kg/injection, schedule: Q01DX009 (ip), vehicle: water): 102 % of control
- T/C (dose: 200.0 mg/kg/injection, schedule: Q04DX003 (ip), vehicle: water): 92 % of control
- T/C (dose: 400.0 mg/kg/injection, schedule: Q01DX009 (ip), vehicle: water): 119 % of control
- T/C (dose: 400.0 mg/kg/injection, schedule: Q04DX003 (ip), vehicle: water): 89 % of control

Compound: CC(C)c1ccccc1OS(=O)(=O)c1ccc([N+](=O)[O-])cc1
- T/C (dose: 100.0 mg/kg/injection, schedule: Q04DX003 (ip), vehicle: saline sonified): 90 % of control
- T/C (dose: 200.0 mg/kg/injection, schedule: Q04DX003 (ip), vehicle: saline sonified): 95 % of control
- T/C (dose: 400.0 mg/kg/injection, schedule: Q04DX003 (ip), vehicle: saline sonified): 95 % of control

Compound: O=C(O)COc1ccccc1OCC(=O)O
- T/C (dose: 50.0 mg/kg/injection, schedule: Q01DX009 (ip), vehicle: Klucel (hydroxypropylcellulose) (HPC)): 109 % of control
- T/C (dose: 100.0 mg/kg/injection, schedule: Q01DX009 (ip), vehicle: Klucel (hydroxypropylcellulose) (HPC)): 100 % of control
- T/C (dose: 200.0 mg/kg/injection, schedule: Q01DX009 (ip), vehicle: Klucel (hydroxypropylcellulose) (HPC)): 100 % of control

Compound: c1ccc2c3nc(nc2c1)CCCCCCCN3
- T/C (dose: 100.0 mg/kg/injection, schedule: Q04DX003 (ip), vehicle: Klucel (hydroxypropylcellulose) (HPC)): 109 % of control
- T/C (dose: 200.0 mg/kg/injection, schedule: Q04DX003 (ip), vehicle: Klucel (hydroxypropylcellulose) (HPC)): 94 % of control

Compound: COC(=O)CCCNC(=O)/C=C1/c2cc(OC)c(OC)cc2CCC1S(=O)(=O)OC (configuration not stated)
- T/C (dose: 100.0 mg/kg/injection, schedule: Q01DX009 (ip), vehicle: saline): 104 % of control
- T/C (dose: 200.0 mg/kg/injection, schedule: Q01DX009 (ip), vehicle: saline): 90 % of control
- T/C (dose: 400.0 mg/kg/injection, schedule: Q01DX009 (ip), vehicle: saline): 100 % of control

Compound: CC(C)(C)CC(=O)OCCC[N+](C)(C)[O-]
- T/C (dose: 100.0 mg/kg/injection, schedule: Q01DX005 (ip), vehicle: water): 100 % of control
- T/C (dose: 200.0 mg/kg/injection, schedule: Q01DX005 (ip), vehicle: water): 100 % of control

Compound: CC(=O)O[C@H]1C(=O)O[C@@H]2C[C@H]3C(C)=CC(=O)[C@@H](O)[C@]3(C)[C@H]3[C@@]4(O)OC[C@]32[C@@H]1[C@@H](C)[C@H]4O
- T/C (dose: 0.13 mg/kg/injection, schedule: Q01DX010 (ip), vehicle: alcohol): 227 % of control
- T/C (dose: 0.2 mg/kg/injection, schedule: Q01DX010 (ip), vehicle: alcohol): 100 % of control
- T/C (dose: 0.4 mg/kg/injection, schedule: Q01DX010 (ip), vehicle: alcohol): 150 % of control
- T/C (dose: 0.5 mg/kg/injection, schedule: Q01DX009 (ip), vehicle: saline with Tween-80): 120 % of control
- T/C (dose: 0.6 mg/kg/injection, schedule: Q01DX010 (ip), vehicle: alcohol): 166 % of control
- T/C (dose: 0.75 mg/kg/injection, schedule: Q01DX009 (ip), vehicle: saline): 120 % of control
- T/C (dose: 0.75 mg/kg/injection, schedule: Q03HX008 (ip), vehicle: saline): 110 % of control
- T/C (dose: 0.75 mg/kg/injection, schedule: Q03HX016 (ip), vehicle: saline): 120 % of control
- T/C (dose: 1.0 mg/kg/injection, schedule: Q01DX009 (ip), vehicle: saline): 100 % of control
- T/C (dose: 1.0 mg/kg/injection, schedule: Q01DX010 (ip), vehicle: other): 116 % of control
- T/C (dose: 1.0 mg/kg/injection, schedule: Q01DX010 (ip), vehicle: saline): 190 % of control
- T/C (dose: 1.5 mg/kg/injection, schedule: Q01DX005 (ip), vehicle: saline): 100 % of control
- T/C (dose: 1.5 mg/kg/injection, schedule: Q03HX008 (ip), vehicle: saline): 110 % of control
- T/C (dose: 1.5 mg/kg/injection, schedule: Q03HX024 (ip), vehicle: saline): 110 % of control
- T/C (dose: 2.0 mg/kg/injection, schedule: Q01DX010 (ip), vehicle: alcohol): 120 % of control
- T/C (dose: 2.0 mg/kg/injection, schedule: Q01DX010 (ip), vehicle: other): 120 % of control
- T/C (dose: 2.0 mg/kg/injection, schedule: Q01DX010 (ip), vehicle: saline): 190 % of control
- T/C (dose: 3.0 mg/kg/injection, schedule: Q01DX005 (ip), vehicle: saline): 120 % of control
- T/C (dose: 4.0 mg/kg/injection, schedule: Q01DX010 (ip), vehicle: alcohol): 120 % of control
- T/C (dose: 4.0 mg/kg/injection, schedule: Q01DX010 (ip), vehicle: saline): 190 % of control
- T/C (dose: 6.0 mg/kg/injection, schedule: Q01DX005 (ip), vehicle: saline): 100 % of control
- T/C (dose: 6.0 mg/kg/injection, schedule: Q01DX009 (ip), vehicle: saline): 90 % of control
- T/C (dose: 6.0 mg/kg/injection, schedule: Q01DX010 (ip), vehicle: alcohol): 213 % of control
- T/C (dose: 6.0 mg/kg/injection, schedule: Q04DX003 (ip), vehicle: saline): 95 % of control
- T/C (dose: 6.0 mg/kg/injection, schedule: Q08DX002 (ip), vehicle: saline): 100 % of control
- T/C (dose: 8.0 mg/kg/injection, schedule: Q01DX009 (ip), vehicle: saline): 116 % of control
- T/C (dose: 8.0 mg/kg/injection, schedule: Q01DX010 (ip), vehicle: other): 158 % of control
- T/C (dose: 9.0 mg/kg/injection, schedule: Q01DX010 (ip), vehicle: alcohol): 159 % of control
- T/C (dose: 12.0 mg/kg/injection, schedule: Q01DX001 (ip), vehicle: saline): 110 % of control
- T/C (dose: 12.0 mg/kg/injection, schedule: Q01DX005 (ip), vehicle: saline): 120 % of control
- T/C (dose: 12.0 mg/kg/injection, schedule: Q08DX002 (ip), vehicle: saline): 95 % of control
- T/C (dose: 13.0 mg/kg/injection, schedule: Q01DX010 (ip), vehicle: alcohol): 213 % of control
- T/C (dose: 24.0 mg/kg/injection, schedule: Q04DX003 (ip), vehicle: saline): 100 % of control
- T/C (dose: 24.0 mg/kg/injection, schedule: Q08DX002 (ip), vehicle: saline): 100 % of control
- T/C (dose: 48.0 mg/kg/injection, schedule: Q04DX003 (ip), vehicle: saline): 100 % of control
- T/C (dose: 48.0 mg/kg/injection, schedule: Q08DX002 (ip), vehicle: saline): 100 % of control
- T/C (dose: 96.0 mg/kg/injection, schedule: Q01DX001 (ip), vehicle: saline): 110 % of control
- T/C (dose: 96.0 mg/kg/injection, schedule: Q08DX002 (ip), vehicle: saline): 100 % of control
- T/C (dose: 192.0 mg/kg/injection, schedule: Q01DX001 (ip), vehicle: saline): 110 % of control
- T/C (dose: 57.0 micrograms/kg/injection, schedule: Q01DX010 (ip), vehicle: alcohol): 111 % of control
- T/C (dose: 87.0 micrograms/kg/injection, schedule: Q01DX010 (ip), vehicle: alcohol): 107 % of control

Compound: COC(=O)C(CSCSC)NC(=O)NC1CCCCC1 (configuration not stated)
- T/C [1]: 95 % of control
- T/C [2]: 104 % of control
- T/C [3]: 95 % of control

Compound: CN1CCc2cc3c(cc2/C1=C1\OC(=O)c2c1ccc1c2OCO1)OCO3
- T/C [1]: 88 % of control
- T/C [2]: 93 % of control
- T/C [3]: 101 % of control

Compound: CCCNCc1c2c(O)c3c(O)c(C)c4c(c3c1O)C(=O)C(C)(O/C=C/C(OC)C(C)C(OC(C)=O)C(C)C(O)C(C)C(O)C(C)/C=C/C=C(/C)C(=O)N2)O4 (configuration not stated)
- T/C (dose: 50.0 mg/kg/injection, schedule: Q01DX009 (ip), vehicle: saline with Tween-80): 90 % of control
- T/C (dose: 100.0 mg/kg/injection, schedule: Q01DX009 (ip), vehicle: saline with Tween-80): 100 % of control
